Where a name gives a salt, the structure may show the parent alone. Values belong to the compound of their own block, whether it stands above or below them.
Experiments:
[1] = tested on: spontaneously breathing rats; experiment: Minute ventilation (MV) and cardiovascular parameters in naive rats; assay type: in vivo, rat; set-up: unit not given here
Description: All surgical procedures were performed under anesthesia induced by 2% isoflurane in compressed medical grade air. With rats in supine position, the right femoral vein was catheterized using polyethylene tubing (PE-50). This catheter was used for fluid and drug administration. Simultaneously, the right femoral artery was also catheterized for monitoring blood pressure and heart rate. In order to measure the respiratory parameters in spontaneously breathing rats, trachea was intubated using 13 gauge tracheal tube (2.5 mm ID, Instech Solomon, Pa.).
After establishing a stable base-line at 1.5% isoflurane, compounds (typically at a dose of 1 mpk) were administered IV, and ventilatory parameters were generated from spontaneously breathing rats, along with cardiovascular output (mean arterial pressure (MAP) and heart rate). Maximum peak minute ventilatory (MV) responses (MPR), along with changes in minute ventilation versus baseline (AMV) were obtained as shown in the tables below.

[2] = GMP drug product stability of final formulation (25° C./60% RH and 2-8° C.), degradant CLXXVIII; assay type: physicochemical
From the text: A batch of (XXXVI) formulated for clinical use was placed under formal GMP stability (Tables 20I.1 and […]).

[3] = Table 8, 1 mpk, 20% HPβCD, pH 4

SMILES: CCCNc1nc(N)nc(N(C)OC)n1 [XLVII, 6-(Methoxy(methyl)amino)-N2-propyl-1,3,5-triazine-2,4-diamine]
- MV MPR ([1]; 1 mpk IV, 20% HPβCD, pH 5): 150.73
- MV ΔMV ([1]; 1 mpk IV, 20% HPβCD, pH 5): 61.48

SMILES: C=CCNc1nc(N2CCC(c3nc(NCCC)nc(NCCC)n3)CC2)c2ccn(C)c2n1 [6-(1-(2-(allylamino)-7-methyl-7H-pyrrolo[2,3-d]pyrimidin-4-yl)piperidin-4-yl)-N^2,N^4-di-n-propyl-1,3,5-triazine-2,4-diamine]
- MV MPR ([1]; 1 mpk IV, 20% HPβCD, pH 5): 154
- MV ΔMV ([1]; 1 mpk IV, 20% HPβCD, pH 5): 60

SMILES: CCCNc1nc(NC(C)C)c2ccn(C(C)C)c2n1 [N^4,7-diisopropyl-N^2-n-propyl-7H-pyrrolo[2,3-d]pyrimidine-2,4-diamine]
- MV MPR ([1]; 1 mpk IV, 20% HPβCD, pH 6): 250
- MV ΔMV ([1]; 1 mpk IV, 20% HPβCD, pH 6): 155

SMILES: CCCNc1nc(NCCC)c2cc[nH]c2n1
- MV MPR ([1]; 1 mpk IV, 20% HPβCD, pH 4-6): 336
- MV ΔMV ([1]; 1 mpk IV, 20% HPβCD, pH 4-6): 164

SMILES: CCCNc1nc(NCCC)nc(N(CC)OC(C)C)n1 [LXXVI, N-(4,6-Bis-n-propylamino-[1,3,5]triazin-2-yl)-N-ethyl-O-isopropyl-hydroxylamine]
- MV MPR ([1]; 1 mpk IV, 20% HPβCD, pH 4): 308
- MV ΔMV ([1]; 1 mpk IV, 20% HPβCD, pH 4): 191
- MV DMV [1, 3]: 191
- MV MPR [1, 3]: 308

SMILES: CON(C)c1nc(NCC2CCOCC2)nc(NCC2CCOCC2)n1 [CXV]
- MV DMV ([1]; Table 8, 1 mpk, 15/65/20, pH 4): 33.8
- MV MPR ([1]; Table 8, 1 mpk, 15/65/20, pH 4): 155.7

- Level of Degradant (CLXXVIII) in GMP lot# 041I0511 ([2]; 5° C., amb. RH, Inverted, T = 1 month): 0.03%
- Level of Degradant (CLXXVIII) in GMP lot# 041I0511 ([2]; 5° C., amb. RH, Inverted, T = 3 month): 0.06%
- Level of Degradant (CLXXVIII) in GMP lot# 041I0511 ([2]; 5° C., amb. RH, Inverted, T = 6 month): 0.08%
- Level of Degradant (CLXXVIII) in GMP lot# 041I0511 ([2]; 5° C., amb. RH, Inverted, T = 9 month): 0.11%
- Level of Degradant (CLXXVIII) in GMP lot# 041I0511 ([2]; 5° C., amb. RH, Upright, T = 6 month): 0.08%
- Level of Degradant (CLXXVIII) in GMP lot# 041I0511 ([2]; Release Testing, Drug Product Production lot Sample Pull Beg.): 0.00%
- Level of Degradant (CLXXVIII) in GMP lot# 041I0511 ([2]; Release Testing, Drug Product Production lot Sample Pull End): 0.00%
- Level of Degradant (CLXXVIII) in GMP lot# 041I0511 ([2]; Release Testing, Drug Product Production lot Sample Pull Mid.): 0.00%
SMILES: CCCNc1nc(O)nc(NCCC)n1 [(CLXXVIII)]

SMILES: CON(C)c1nc(NC2CC2)nc(NC2CC2)n1 [XXXIII, 4,6-Bis-N-cyclopropylamino-[1,3,5]triazin-2-yl)-N,O-dimethyl-hydroxylamine hydrochloride]
- MV MPR ([1]; 1 mpk IV, 20% HPβCD, pH 4-6): 147
- MV ΔMV ([1]; 1 mpk IV, 20% HPβCD, pH 4-6): 53

SMILES: COCCCNc1nc(NCCCOC)nc(N(C)OC)n1 [CXIII]
- MV DMV [1, 3]: 46
- MV MPR [1, 3]: 167.1

SMILES: CCCNc1nc(NCCC)nc(N(OCc2ccccc2)C(C)C)n1 [LXXII, 6-((Benzyloxy)(isopropyl)amino)-N^2,N^4-dipropyl-1,3,5-triazine-2,4-diamine]
- MV DMV [1, 3]: 82
- MV MPR [1, 3]: 176

SMILES: CCCNc1nc(NC(C)C)c2c(n1)N(C)CC2 [CXXVI]
- MV MPR ([1]; 1 mpk IV, 20% HPβCD, pH 5): 327
- MV ΔMV ([1]; 1 mpk IV, 20% HPβCD, pH 5): 224

SMILES: CCCNc1nc(NCCC)nc(N2C3CCC2CC(=O)C3)n1 [(1,5)-8-(4,6-bis(n-propylamino)-1,3,5-triazin-2-yl)-8-azabicyclo[3.2.1]octan-3-one]
- MV MPR ([1]; 1 mpk IV, 20% HPβCD, pH 5): 213
- MV ΔMV ([1]; 1 mpk IV, 20% HPβCD, pH 5): 98
